From patent publication EP1169044B1, “USE OF FUCOSYLATED SIALYLATED N-ACETYL LACTOSAMINE CARBOHYDRATE STRUCTURES FOR INHIBITION OF BACTERIAL ADHERENCE” (Borén, Thomas, priority 1999, dated 2000)

Assays:
[1] = system: strain CCUG 17874, the BabA2 mutant and the BabA1A2 mutant; experiment: thin-layer chromatogram binding assay (radiolabelled bacteria overlaid on separated glycosphingolipids); design: species or system Helicobacter pylori; settings: for Binding obtained with strain CCUG 17874, the babA2 mutant and the babA1A2 mutant: glycosphingolipids on thin-layer chromatograms, autoradiogram; for binding to glycosphingolipids on thin-layer chromatograms (in words): CCUG 17874, babA2 mutant, babA1A2 mutant
Experimental: (§1) The glycosphingolipids were separated and (A) visualised with anisaldehyde. Duplicate chromatograms were incubated with monoclonal (B) anti-sialyl-Lewis x, (C) anti-sialyl-Lewis a, and radiolabelled H. pylori (D) strain CCUG 17875, (E) the BabA1A2 mutant strain, and (F) strain CCUG 17874. Autoradiography was for 12 hr. The lanes contained: 1, Acid glycosphingolipids of calf brain, 40 µg; 2, Acid glycosphingolipids of human neutrophil granulocytes, 40 µg; 3, Acid glycosphingolipids of human neutrophil granulocytes after de-sialylation, 40 µg; 4, Acid glycosphingolipids of human gall bladder adenocarcinoma, 40 µg; 5, Acid glycosphingolipids of human gall bladder adenocarcinoma after de-sialylation, 40 µg; 6, NeuAcα3Galβ4(Fucα3)GlcNAcβ3Galβ4(Fucα3)GlcNAcβ3Galβ4Glcβ1Cer isolated from human gall bladder adenocarcinoma, 1 µg; 7, NeuAcα3Galβ3(Fucα4)GlcNAcβ3Galβ4Glcβ1-Cer (sialyl-Lewis a hexaglycosylceramide) isolated from human gall bladder adenocarcinoma, 4 µg; 8, NeuAcα3Galβ4(Fucα3)GlcNAcβ3Galβ4Glcβ1Cer (sialyl-Lewis x hexaglycosyl-ceramide), 4 µg; 9, Fucα2Galβ3(Fucα4)GlcNAcβ3Galβ4Glcβ1Cer (Lewis b-6 hexaglycosylceramide) of human small intestine, 4 µg.
(§2) Culture and ^35S-labelling of H. pylori was as outlined in (Ångström, J., Teneberg, S., Abul Milh, M,. Larsson, T., Leonardsson, I., Olsson, B.-M., Ölwegård Halvarsson, M., Danielsson, D., and Karlsson, K.-A. (1998). The lactosylceramide binding specificity of Helicobacter pylori. Glycobiology 8, 297-309.). Mixtures of glycosphingolipids (20-40 µg/lane) or pure compounds (0.002-4 µg/lane) were separated on aluminium-backed silica gel 60 HPTLC plates (Merck), using chloroform:methanol:water 60:35:8 (v/v/v) as solvent system. Chemical detection was done with anisaldehyde (Waldi, D. (1962) Sprühreagentien für die dünnschicht-chromatographie. In Dünnschicht-Chromatographie, E. Stahl ed. (Berlin: Springer-Verlag) pp. 496-51).
(§3) Binding of radiolabelled H. pylori to glycosphingolipids on thin-layer chromatograms was performed as described above (Ångström et al., 1998) using suspensions of bacteria diluted in phosphate-buffered saline (PBS), pH 7.3, to 1x10^8 CFU/ml. The specific activities of the suspensions were approximately 1 CPM per 100 H. pylori organisms. Binding of monoclonal antibodies was done as described (Magnani, J.L., Brockhaus, M., Smith, D.F., Ginsburg, V., Blaszczyk, M., Mitchell, K.F., Steplewski, Z., and Koprowski, H. (1981). A monosialoganglioside is a monoclonal antibody-defined antigen of colon-carcinoma. Science 212, 55-56). Anti-sialyl-Lewis x monoclonal antibodies (clone KM-93) were from Seikagaku Corp., Tokyo, Japan and anti-sialyl-Lewis a monoclonal antibodies (CA 19-9) from Signet Laboratories, Inc., Dedham, MA 02026, USA.
(§4) Screening of potential receptor structures unique for thebabA1/babA2-mutant was performed by adherence experiments to well-defined panels of MS-characterized glycolipids, from defined and unique sources and tissues. Binding of H. pylori and monoclonal antibodies to glycosphingo-lipids was evaluated using the thin-layer chromatogram binding assay (J. Ångström et al., Glycobiology 8, 297 (1998); J. M. McKibbin et al., J. Biol. Chem. 257,755 (1982)), i.e., glyco-lipids were separated on HPTLC-plates, and H. pylori CCUG 17875 wild type bacteria and the babA1/babA2-mutant were overlaid on the plates and binding of radio labelled bacterial cells was detected. (See Experimental procedures).

[2] = system: Helicobacter pylori strain CCUG 17875; experiment: as above; settings: glycosphingolipids on thin-layer chromatograms, autoradiogram
Experimental: as §1, §2, §3, §4

| Substance | Binding obtained with strain CCUG 17874, the babA2 mutant and the babA1A2 mutant ([1]; Table 1) | Binding obtained with strain CCUG 17874, the babA2 mutant and the babA1A2 mutant ([1]; Table 2) | Binding obtained with strain CCUG 17875 ([2]; Table 1) | Binding obtained with strain CCUG 17875 ([2]; Table 2) | binding to glycosphingolipids on thin-layer chromatograms (in words) [1] | amount required for binding ([1]; weak, occasionally observed binding on thin-layer chromatogram) [nmol] | detection level ([1]; binding on thin-layer chromatogram) |
| --- | --- | --- | --- | --- | --- | --- | --- |
| Galβ3GalNAcβ4(NeuAcα3)Galβ4Glcβ1Cer [GM1] | - (- denotes no darkening even at 2 nmol) | - (– denotes no darkening even at 2 nmol) | - (- denotes no darkening even at 2 nmol) | - (– denotes no darkening even at 2 nmol) |  |  |  |
| NeuAcα3Galβ3(Fucα4)GlcNAcβ3Galβ4Glcβ1Cer [S-Le^a] |  | - (– denotes no darkening even at 2 nmol) |  | - (– denotes no darkening even at 2 nmol) | almost no binding |  |  |
| NeuAcα3Galβ4Glcβ1Cer [GM3] | - (- denotes no darkening even at 2 nmol) | - (– denotes no darkening even at 2 nmol) | - (- denotes no darkening even at 2 nmol) | - (– denotes no darkening even at 2 nmol) |  |  |  |
| NeuAcα3Galβ3GalNAcβ4(NeuAcα3)Galβ4Glcβ1Cer [GD1a] | - (- denotes no darkening even at 2 nmol) | - (– denotes no darkening even at 2 nmol) | - (- denotes no darkening even at 2 nmol) | - (– denotes no darkening even at 2 nmol) |  |  |  |
| NeuAcα3Galβ4(Fucα3)GlcNAcβ3Galβ4Glcβ1Cer [S-Le^x] |  |  |  |  | weak binding | 2 |  |
| Fucα2Galβ3(Fucα4)GlcNAcβ3Galβ4Glcβ1Cer [Le^b-6] | - (- denotes no darkening even at 2 nmol) | - (– denotes no darkening even at 2 nmol) | +^3 (+ denotes a darkening at 2 nmol) | +3 (+3 denotes a significant darkening on the autoradiogram when 1 pmol of structure was applied on the thin-layer plate) | did not recognize |  |  |
| Galβ3GalNAcβ4(NeuAcα8NeuAcα3)Galβ4Glcβ1Cer [GD1b] | - (- denotes no darkening even at 2 nmol) | - (– denotes no darkening even at 2 nmol) | - (- denotes no darkening even at 2 nmol) | - (– denotes no darkening even at 2 nmol) |  |  |  |
| NeuAcα3Galβ4(Fucα3)GlcNAcβ3Galβ4(Fucα3)GlcNAcβ3Galβ4Glcβ1Cer | +++ (+++ denotes a significant darkening on the autoradiogram when 1 pmol was applied on the thin-layer plate) | +3 (+3 denotes a significant darkening on the autoradiogram when 1 pmol of structure was applied on the thin-layer plate) | - (- denotes no darkening even at 2 nmol) | - (– denotes no darkening even at 2 nmol) |  |  | approximately 1 pmol |
